Results published in PubChem BioAssay (NCI).
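1) Cells in 96-well plates. 2) Compound, 48 h, 5 concentrations. 3) Linear interpolation between surrounding doses. 4) Unreached endpoint = highest concentration. GI50: concentration for 50% inhibition of growth. TGI marks complete inhibition of growth.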

Experiments:
Test in all cases: DTP human tumour cell line panel, 48 h
[1] = tested on: TK-10 renal
[2] = tested on: SNB-19 CNS
[3] = tested on: OVCAR-5 ovarian
[4] = tested on: COLO 205 colon
[5] = tested on: HOP-62 NSCLC
[6] = tested on: RXF 393 renal
[7] = tested on: OVCAR-8 ovarian
[8] = tested on: EKVX NSCLC
[9] = tested on: ACHN renal
[10] = tested on: HCT-15 colon
[11] = tested on: SK-MEL-2 melanoma
[12] = tested on: XF 498 CNS
[13] = tested on: SW-620 colon
[14] = tested on: SK-MEL-28 melanoma
[15] = tested on: CAKI-1 renal
[16] = tested on: CCRF-CEM leukemia
[17] = tested on: HT29 colon
[18] = tested on: SNB-75 CNS
[19] = tested on: 786-0 renal
[20] = tested on: DMS 273 small cell lung
[21] = tested on: UACC-62 melanoma
[22] = tested on: U251 CNS
[23] = tested on: SF-268 CNS
[24] = tested on: OVCAR-4 ovarian
[25] = tested on: M19-MEL melanoma
[26] = tested on: MOLT-4 leukemia
[27] = tested on: NCI-H522 lung
[28] = tested on: M14 melanoma
[29] = tested on: UO-31 renal
[30] = tested on: SR leukemia
[31] = tested on: HL-60(TB) leukemia
[32] = tested on: KM12 colon
[33] = tested on: OVCAR-3 ovarian
[34] = tested on: RPMI-8226 leukemia
[35] = tested on: KM20L2 colon
[36] = tested on: A549 NSCLC
[37] = tested on: SK-OV-3 ovarian
[38] = tested on: IGROV1 ovarian
[39] = tested on: LXFL 529 NSCLC
[40] = tested on: SNB-78 CNS
[41] = tested on: UACC-257 melanoma
[42] = tested on: HCT-116 colon
[43] = tested on: SK-MEL-5 melanoma
[44] = tested on: SF-539 CNS
[45] = tested on: A498 renal
[46] = tested on: K-562 leukemia
[47] = tested on: NCI-H23 lung
[48] = tested on: LOX IMVI melanoma
[49] = tested on: NCI-H226 lung
[50] = tested on: HOP-92 NSCLC
[51] = tested on: SN12C renal
[52] = tested on: SF-295 CNS
[53] = tested on: NCI-H460 lung
[54] = tested on: MALME-3M melanoma
[55] = tested on: DLD-1 colon
[56] = tested on: DMS 114 small cell lung
[57] = tested on: HCC-2998 colon

`OCCNCO` was tested, and the TGI [1] was > 100 µM, the TGI [2] was > 100 µM and the TGI [3] was > 100 µM. The TGI [4] was > 100 µM, the TGI [5] was > 100 µM and the TGI [6] was > 100 µM. For the same molecule, the TGI [7] was > 100 µM, the TGI [8] was > 100 µM and the TGI [9] was > 100 µM. For the same molecule, the TGI [10] was > 100 µM, the TGI [11] was > 100 µM and the TGI [12] was > 100 µM. The TGI [13] was > 100 µM, the TGI [14] was > 100 µM and the TGI [15] was > 100 µM. For the same molecule, the TGI [16] was > 100 µM, the TGI [17] was > 100 µM and the TGI [18] was > 100 µM. For the same molecule, the TGI [19] was > 100 µM, the TGI [20] was > 100 µM and the TGI [21] was > 100 µM. The TGI [22] was > 100 µM, the TGI [23] was > 100 µM and the TGI [24] was > 100 µM. The TGI [25] was > 100 µM, the TGI [26] was > 100 µM and the TGI [27] was > 100 µM. For the same molecule, the TGI [28] was > 100 µM, the TGI [29] was > 100 µM and the TGI [30] was > 100 µM. The TGI [31] was > 100 µM, the TGI [32] was > 100 µM and the TGI [33] was > 100 µM. The TGI [34] was > 100 µM, the TGI [35] was > 100 µM and the TGI [36] was > 100 µM. The TGI [37] was > 100 µM, the TGI [38] was > 100 µM and the TGI [39] was > 100 µM. The TGI [40] was > 100 µM, the TGI [41] was > 100 µM and the TGI [42] was > 100 µM. For the same molecule, the TGI [43] was > 100 µM, the TGI [44] was > 100 µM and the TGI [45] was > 100 µM. For the same molecule, the TGI [46] was > 100 µM, the TGI [47] was > 100 µM and the TGI [48] was > 100 µM. For the same molecule, the TGI [49] was > 100 µM, the TGI [50] was > 100 µM and the TGI [51] was > 100 µM. For the same molecule, the TGI [52] was > 100 µM and the TGI [53] was > 100 µM.
For `OCc1ccccc1C1CSCSC1`, the TGI [1] was > 100 µM, the TGI [54] was > 100 µM and the TGI [55] was > 100 µM. For the same molecule, the TGI [6] was > 100 µM, the TGI [7] was > 100 µM and the TGI [9] was > 100 µM. For the same molecule, the TGI [10] was > 100 µM, the TGI [11] was > 100 µM and the TGI [12] was > 100 µM. For the same molecule, the TGI [13] was > 100 µM, the TGI [14] was > 100 µM and the TGI [16] was > 100 µM. The TGI [17] was > 100 µM, the TGI [18] was > 100 µM and the TGI [20] was > 100 µM. For the same molecule, the TGI [21] was > 100 µM, the TGI [22] was > 100 µM and the TGI [23] was > 100 µM. For the same molecule, the TGI [24] was > 100 µM, the TGI [25] was > 100 µM and the TGI [26] was > 100 µM. The TGI [27] was > 100 µM, the TGI [29] was > 100 µM and the TGI [31] was > 100 µM. For the same molecule, the TGI [32] was > 100 µM, the TGI [33] was > 100 µM and the TGI [36] was > 100 µM. For the same molecule, the TGI [37] was > 100 µM, the TGI [39] was > 100 µM and the TGI [40] was > 100 µM. For the same molecule, the TGI [41] was > 100 µM, the TGI [42] was > 100 µM and the TGI [43] was > 100 µM. For the same molecule, the TGI [44] was > 100 µM, the TGI [46] was > 100 µM and the TGI [48] was > 100 µM. The TGI [49] was > 100 µM, the TGI [56] was > 100 µM and the TGI [51] was > 100 µM. The TGI [52] was > 100 µM and the TGI [53] was > 100 µM.
With `O=C(/C=C(\[O-])c1ccccc1)CCCCCCC(=O)/C=C(\[O-])c1ccccc1.O=C(/C=C(\[O-])c1ccccc1)CCCCCCC(=O)/C=C(\[O-])c1ccccc1.O=C(/C=C(\[O-])c1ccccc1)CCCCCCC(=O)/C=C(\[O-])c1ccccc1.[La+3].[La+3]` the GI50 [1] was > 50 µM, the TGI [1] was > 50 µM and the GI50 [54] was > 50 µM. For the same molecule, the TGI [54] was > 50 µM, the GI50 [2] was > 50 µM and the TGI [2] was > 50 µM. The GI50 [3] was > 50 µM, the TGI [3] was > 50 µM and the GI50 [4] was > 50 µM. The TGI [4] was > 50 µM, the GI50 [5] was > 50 µM and the TGI [5] was > 50 µM. For the same molecule, the GI50 [6] was > 50 µM, the TGI [6] was > 50 µM and the GI50 [7] was > 50 µM. The TGI [7] was > 50 µM, the GI50 [8] was > 50 µM and the TGI [8] was > 50 µM. The GI50 [9] was > 50 µM, the TGI [9] was > 50 µM and the GI50 [10] was > 50 µM. The TGI [10] was > 50 µM, the GI50 [11] was > 50 µM and the TGI [11] was > 50 µM. For the same molecule, the GI50 [13] was > 50 µM, the TGI [13] was > 50 µM and the GI50 [14] was > 50 µM. For the same molecule, the TGI [14] was > 50 µM, the GI50 [15] was > 50 µM and the TGI [15] was > 50 µM. For the same molecule, the GI50 [17] was > 50 µM, the TGI [17] was > 50 µM and the GI50 [18] was 9.33 µM. The TGI [18] was 48.2 µM, the GI50 [19] was > 50 µM and the TGI [19] was > 50 µM. The GI50 [21] was > 50 µM, the TGI [21] was > 50 µM and the GI50 [22] was > 50 µM. For the same molecule, the TGI [22] was > 50 µM, the GI50 [23] was > 50 µM and the TGI [23] was > 50 µM. For the same molecule, the GI50 [24] was > 50 µM, the TGI [24] was > 50 µM and the GI50 [26] was > 50 µM. The TGI [26] was > 50 µM, the GI50 [27] was > 50 µM and the TGI [27] was > 50 µM. The GI50 [28] was > 50 µM, the TGI [28] was > 50 µM and the GI50 [29] was > 50 µM. For the same molecule, the TGI [29] was > 50 µM, the GI50 [31] was > 50 µM and the TGI [31] was > 50 µM. The GI50 [34] was > 50 µM, the TGI [34] was > 50 µM and the GI50 [35] was > 50 µM. The TGI [35] was > 50 µM, the GI50 [57] was > 50 µM and the TGI [57] was > 50 µM. For the same molecule, the GI50 [36] was > 50 µM, the TGI [36] was > 50 µM and the GI50 [37] was > 50 µM. For the same molecule, the TGI [37] was > 50 µM, the GI50 [38] was > 50 µM and the TGI [38] was > 50 µM. For the same molecule, the GI50 [41] was > 50 µM, the TGI [41] was > 50 µM and the GI50 [42] was > 50 µM. The TGI [42] was > 50 µM, the GI50 [43] was > 50 µM and the TGI [43] was > 50 µM. The GI50 [45] was > 50 µM, the TGI [45] was > 50 µM and the GI50 [46] was > 50 µM. For the same molecule, the TGI [46] was > 50 µM, the GI50 [47] was > 50 µM and the TGI [47] was > 50 µM. For the same molecule, the GI50 [48] was > 50 µM, the TGI [48] was > 50 µM and the GI50 [49] was > 50 µM. For the same molecule, the TGI [49] was > 50 µM, the GI50 [50] was > 50 µM and the TGI [50] was > 50 µM. The GI50 [51] was > 50 µM, the TGI [51] was > 50 µM and the GI50 [53] was > 50 µM. For the same molecule, the TGI [53] was > 50 µM.
